Here are results for 2 molecules from paper PMC7529893, “Structural basis for substrate recognition and chemical inhibition of oncogenic MAGE ubiquitin ligases” (Nature Communications, 2020).

Data set [1] addresses T1, MAGE-A11:PCF11 interaction (GST-MAGE-A11 MHD and FAM-PCF11_4) (Homo sapiens, UniProt P43364).
T1 construct: GST-MAGE-A11 MHD (human MAGE-A11 MHD amino acid 218-429); made in house; host or cells: E. coli BL21(DE3)
T1 sequence (P43364 218-429): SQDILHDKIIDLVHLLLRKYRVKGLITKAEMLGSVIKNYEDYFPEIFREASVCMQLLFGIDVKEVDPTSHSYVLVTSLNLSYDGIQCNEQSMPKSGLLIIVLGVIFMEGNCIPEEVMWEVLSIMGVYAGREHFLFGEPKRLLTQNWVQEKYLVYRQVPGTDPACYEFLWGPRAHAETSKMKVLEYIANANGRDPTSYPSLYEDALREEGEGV
Kind of data set: TR-FRET dose response test of compounds for disruption of MAGE-A11:PCF11 binding. Particulars: Fig. 5c, 5f, Supplementary Fig. 4e legend; read-out: IC50, TR-FRET competition, disruption of MAGE-A11:PCF11 binding. The essentials: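 Competition of compounds against binding of FAM-PCF11_4 peptide to GST-MAGE-A11 MHD, detected with Tb-anti-GST, in 50 mM Tris pH 7.5, 20 mM MgCl2, 0.1 mg/ml BSA, 1 mM DTT. 90 min at ~25 °C; 520/490 nm emission ratio (340 nm excitation) fitted for IC50.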
A general note: TR-FRET usually uses a lanthanide donor and a delayed reading to cut background.

A short description of data set [2]: High throughput Caco-2 permeability. To be noted: human, Caco-2, pH 7.4, 10 µmol/l, 2 h; for Papp A→B at 2 h, 10 µmol/l: apical to basolateral; for Papp B→A at 2 h, 10 µmol/l: basolateral to apical. Format: in vitro ADME. How it is done:
High throughput Caco-2 permeability was performed in the TranswellR 0.4 µm polycarbonate membrane 96-well system with modified methods. Caco-2 cells were maintained at 37 °C in a humidified incubator with an atmosphere of 5% CO2. The cells were cultured in 75 cm^2 flasks with Dulbecco’s Modified Eagle’s Medium (DMEM) containing 10% (v/v) FBS, 1% (v/v) non-essential amino acids (NEAA), 100 units/ml of penicillin, and 100 µg/ml of streptomycin. The Caco-2 cells were seeded onto inserts at a density of 2 × 10^4 cells/insert separately. The medium in the wells was exchanged each other day, and the trans epithelial electrical resistance (TEER) value was measured using an epithelial voltohm meter (Millipore, Billerica, Massachusetts). […] For transport experiments, each cultured monolayer on the 96-well plate was washed twice with a transport buffer (HBSS containing 25 mM HEPES, pH 7.4). The permeability assay was initiated by the addition of each compound solution (10 µmol/l) into inserts (apical side, A) or receivers (basolateral side, B). The Caco-2 cell monolayers were incubated for 2 h at 37 °C. Fractions were collected from receivers (if apical to basal permeability) or inserts (if basal to apical permeability), and concentrations were assessed by UPLC/MS (Waters; Milford, MA). All compounds were tested in triplicates. The A → B (or B → A) apparent permeability coefficients (Papp) of each compound were calculated using the equation, Papp = dQ/dt × 1/AC0, where dQ/dt equals the flux of a drug across the monolayer, A equals the total insert well surface area, and C0 is the initial concentration of substrate in the donor compartment. The efflux ratio was determined by dividing the Papp in the B-A direction by the Papp in the A-B direction.
For orientation: Caco-2 cells form a polarised layer with tight junctions and transporters.

On to `FC(F)(F)c1ccc2c(NCCCNCc3ccc4[nH]ccc4c3)ccnc2c1` [SJ000521054-02], for which, in data set [1], the IC50 (usually the concentration at which inhibition is half-maximal) came out at 400 nM. Also, in data set [2], the Papp A→B – broadly, how fast a substance crosses the layer from the apical side – at 2 h, 10 µmol/l came to 11.5 ×10⁻⁶ cm/s and the Papp B→A (usually the apparent permeability from the basolateral to the apical side of a cell layer) at 2 h, 10 µmol/l is 14.2 ×10⁻⁶ cm/s.

Regarding `c1ccc2c(NCCCNCc3ccc4[nH]ccc4c3)ccnc2c1` [SJ001008066-01], the IC50 in data set [1] amounted to 130 nM. In data set [2], the Papp A→B at 2 h, 10 µmol/l is 8.17 ×10⁻⁶ cm/s and the Papp B→A at 2 h, 10 µmol/l amounted to 8.09 ×10⁻⁶ cm/s.
